Experimental data taken from ChEMBL document CHEMBL3351806, “Development of a novel, multifunctional, membrane-interactive pyridinium salt with potent anticancer activity” (Bioorg Med Chem Lett, 2014).
The source made the active and inactive calls. The rule behind the calls is not given here.

Legend:
[1] = Induction of membrane disruption using DMPE lipid vesicles at 187.5 uM; assay type: functional
[2] = Induction of membrane disruption using DMPG lipid vesicles at 187.5 uM; assay type: functional
[3] = Induction of membrane disruption using DMPC lipid vesicles at 187.5 uM; assay type: functional
[4] = Induction of membrane disruption using DMPS lipid vesicles at 187.5 uM; assay type: functional
[5] = Antiproliferative activity against human IN1472 cells after 72 hrs by SRB method; assay type: functional, cell-based; conditions: IN1472, 72 h
IN1528 [6] = assay: Induction of membrane disruption in human IN1528 cells assessed as cell structure disruption at 1000 uM by trypan blue exclusion assay; assay type: functional, cell-based
[7] = Antiproliferative activity against human IN1760 cells after 72 hrs by SRB method; assay type: functional, cell-based; conditions: IN1760, 72 h
IN1472 [8] = assay: Induction of membrane disruption in human IN1472 cells assessed as cell structure disruption at 1000 uM by trypan blue exclusion assay; assay type: functional, cell-based
IN1528 [9] = assay: Induction of membrane disruption in human IN1528 cells assessed as dye uptake at 200 to 500 uM by trypan blue exclusion assay; assay type: functional, cell-based
[10] = Antiproliferative activity against human U251MG cells after 72 hrs by SRB method; assay type: functional, cell-based; conditions: U-251, 72 h
IN1760 [11] = assay: Induction of membrane disruption in human IN1760 cells assessed as cell structure disruption at 1000 uM by trypan blue exclusion assay; assay type: functional, cell-based
[12] = Antiproliferative activity against human IN1528 cells after 72 hrs by SRB method; assay type: functional, cell-based; conditions: IN1528, 72 h
IN1760 [13] = assay: Induction of membrane disruption in human IN1760 cells assessed as dye uptake at 200 to 500 uM by trypan blue exclusion assay; assay type: functional, cell-based
U-251 [14] = assay: Induction of membrane disruption in human U251MG cells assessed as cell structure disruption at 1000 uM by trypan blue exclusion assay; assay type: functional, cell-based
U-251 [15] = assay: Induction of membrane disruption in human U251MG cells assessed as dye uptake at 200 to 500 uM by trypan blue exclusion assay; assay type: functional, cell-based
IN1472 [16] = assay: Induction of membrane disruption in human IN1472 cells assessed as dye uptake at 200 to 500 uM by trypan blue exclusion assay; assay type: functional, cell-based

## CN(C(=O)c1ccncc1)c1ccncc1
[1]
  Activity: 34.9%
[2]
  Activity: 30%
[3]
  Activity: 34.1%
[4]
  Activity: 23.3%

## CCCCCCCCc1ccc(C(=O)N(C)c2ccc(CCCCCCCC)cc2)cc1
[1]
  Activity: 34.7%
[2]
  Activity: 16.6%
[3]
  Activity: 27.3%
[4]
  Activity: 27.2%

## CCCCCCCC[n+]1ccc(C(=O)N(C)c2cc[n+](CCCCCCCC)cc2)cc1
[5]
  EC50: 78 µM
[1]
  Activity: 77.7%
IN1528 [6]
  Activity: Active
[7]
  EC50: 19.5 µM
IN1472 [8]
  Activity: Active
IN1528 [9]
  Activity: Active
[10]
  EC50: 312 µM
[2]
  Activity: 44.2%
IN1760 [11]
  Activity: Active
[3]
  Activity: 38.8%
[12]
  EC50: 9.8 µM
[4]
  Activity: 64.6%
IN1760 [13]
  Activity: Active
U-251 [14]
  Activity: Active
U-251 [15]
  Activity: Active
IN1472 [16]
  Activity: Active
